Numbers after ± are expanded uncertainties.

This data set in a line: activity coefficient (dimensionless); of the first substance listed, at infinite dilution; xn = mol fraction of the nth substance listed. The settings on record: Liquid, Chromatography, x1 = 0.

Take `c1ccccc1` [benzene] + CCCC[n+]1ccn(C)c1.O=S(=O)([N-]S(=O)(=O)C(F)(F)F)C(F)(F)F: the activity coefficient reads like this: (313 K) 0.938 ± 0.08; (323 K) 0.957 ± 0.081; (333 K) 0.975 ± 0.083; (343 K) 0.99 ± 0.084; (353 K) 1.01 ± 0.09.
For `CCc1ccccc1` [ethylbenzene] + CCCC[n+]1ccn(C)c1.O=S(=O)([N-]S(=O)(=O)C(F)(F)F)C(F)(F)F the same measures were 1.98 ± 0.18, 2.01 ± 0.18, 2.01 ± 0.18, 2.05 ± 0.18 and 2.07 ± 0.18.
The corresponding values for `CCc1ccco1` [2-ethylfuran] + CCCCn1cc[n+](C)c1.[Cl-] are 5.85 ± 0.54, 6 ± 0.55, 6.12 ± 0.56, 6.23 ± 0.57 and 6.41 ± 0.59.
Take `CO` [methanol] + CCCCn1cc[n+](C)c1.[Cl-]: the activity coefficient amounted to 0.1 ± 0.03 (323 K), 0.104 ± 0.03 (333 K), 0.109 ± 0.03 (343 K) and 0.115 ± 0.03 (353 K).
For `Cc1ccccc1` [toluene] + CCCC[n+]1ccn(C)c1.O=S(=O)([N-]S(=O)(=O)C(F)(F)F)C(F)(F)F, the activity coefficient reads like this: (313 K) 1.31 ± 0.11; (323 K) 1.34 ± 0.12; (333 K) 1.37 ± 0.12; (343 K) 1.39 ± 0.12; (353 K) 1.42 ± 0.12.
For `CCCO` [propan-1-ol] + CCCCn1cc[n+](C)c1.[Cl-], the activity coefficient is, setting by setting: (333 K) 0.286 ± 0.035; (343 K) 0.292 ± 0.036; (353 K) 0.301 ± 0.036.
For the compound `CCO` [ethanol] + CCCC[n+]1ccn(C)c1.O=S(=O)([N-]S(=O)(=O)C(F)(F)F)C(F)(F)F, the activity coefficient is 1.6 ± 0.14 (313 K); 1.48 ± 0.13 (323 K); 1.37 ± 0.12 (333 K); 1.28 ± 0.11 (343 K); 1.2 ± 0.1 (353 K).
The corresponding values for `CCCO` [propan-1-ol] + CCCC[n+]1ccn(C)c1.O=S(=O)([N-]S(=O)(=O)C(F)(F)F)C(F)(F)F are 1.94 ± 0.17, 1.77 ± 0.16, 1.63 ± 0.14, 1.51 ± 0.13 and 1.4 ± 0.12.
Take `CCc1ccco1` [2-ethylfuran] + CCCC[n+]1ccn(C)c1.O=S(=O)([N-]S(=O)(=O)C(F)(F)F)C(F)(F)F: the activity coefficient by setting is: (313 K) 1.47 ± 0.13; (323 K) 1.49 ± 0.13; (333 K) 1.51 ± 0.13; (343 K) 1.52 ± 0.13; (353 K) 1.54 ± 0.13.
For `CCc1ccccc1` [ethylbenzene] + CCCCn1cc[n+](C)c1.[Cl-] the same measures were 12.5 ± 1.2, 12.5 ± 1.2, 12.4 ± 1.1, 12.4 ± 1.1 and 12.4 ± 1.1.
Regarding `Clc1ccccc1` [chlorobenzene] + CCCCn1cc[n+](C)c1.[Cl-], the activity coefficient stood at 3.41 ± 0.31 (313 K); 3.58 ± 0.33 (323 K); 3.71 ± 0.34 (333 K); 3.82 ± 0.35 (343 K); 3.96 ± 0.36 (353 K).
The corresponding values for `c1ccoc1` [furan] + CCCC[n+]1ccn(C)c1.O=S(=O)([N-]S(=O)(=O)C(F)(F)F)C(F)(F)F are 0.678 ± 0.06, 0.695 ± 0.061, 0.711 ± 0.063, 0.727 ± 0.064 and 0.739 ± 0.065.
The corresponding values for `c1ccccc1` [benzene] + CCCCn1cc[n+](C)c1.[Cl-] are 4.09 ± 0.38, 4.14 ± 0.38, 4.15 ± 0.38, 4.15 ± 0.38 and 4.12 ± 0.38.
In the case of `Clc1ccccc1` [chlorobenzene] + CCCC[n+]1ccn(C)c1.O=S(=O)([N-]S(=O)(=O)C(F)(F)F)C(F)(F)F, the activity coefficient came to 1.5 ± 0.13 (313 K); 1.52 ± 0.13 (323 K); 1.53 ± 0.13 (333 K); 1.54 ± 0.13 (343 K); 1.54 ± 0.13 (353 K).
On to `CCO` [ethanol] + CCCCn1cc[n+](C)c1.[Cl-], for which the activity coefficient turned out to be 0.208 ± 0.032 (323 K), 0.213 ± 0.032 (333 K), 0.22 ± 0.032 (343 K) and 0.229 ± 0.033 (353 K).
As to `Cc1ccco1` [2-methylfuran] + CCCC[n+]1ccn(C)c1.O=S(=O)([N-]S(=O)(=O)C(F)(F)F)C(F)(F)F, the activity coefficient (313 K) was determined as 1.1 ± 0.09; the activity coefficient (323 K) worked out at 1.12 ± 0.1; the activity coefficient (333 K) was 1.15 ± 0.1; the activity coefficient (343 K) was 1.17 ± 0.1; the activity coefficient (353 K) turned out to be 1.18 ± 0.1.
The corresponding values for `c1ccoc1` [furan] + CCCCn1cc[n+](C)c1.[Cl-] are 1.41 ± 0.13, 1.48 ± 0.13, 1.56 ± 0.14, 1.66 ± 0.15 and 1.75 ± 0.16.
As to `Cc1ccc(C)o1` [2,5-dimethylfuran] + CCCCn1cc[n+](C)c1.[Cl-], the activity coefficient runs as follows: (313 K) 9.51 ± 0.87; (323 K) 9.6 ± 0.88; (333 K) 9.61 ± 0.88; (343 K) 9.64 ± 0.89; (353 K) 9.76 ± 0.9.
The corresponding values for `Cc1ccccc1` [toluene] + CCCCn1cc[n+](C)c1.[Cl-] are 7.19 ± 0.66, 7.24 ± 0.67, 7.23 ± 0.66, 7.3 ± 0.67 and 7.38 ± 0.68.
Consider `CO` [methanol] + CCCC[n+]1ccn(C)c1.O=S(=O)([N-]S(=O)(=O)C(F)(F)F)C(F)(F)F, for which the activity coefficient (313 K) was found to be 1.26 ± 0.11; the activity coefficient (323 K) stood at 1.21 ± 0.1; the activity coefficient (333 K) amounted to 1.09 ± 0.09; the activity coefficient (343 K) is 1.06 ± 0.09; the activity coefficient (353 K) came to 1.03 ± 0.09.
The corresponding values for `Cc1ccc(C)o1` [2,5-dimethylfuran] + CCCC[n+]1ccn(C)c1.O=S(=O)([N-]S(=O)(=O)C(F)(F)F)C(F)(F)F are 1.83 ± 0.16, 1.85 ± 0.16, 1.86 ± 0.16, 1.88 ± 0.17 and 1.88 ± 0.17.
For `Cc1ccco1` [2-methylfuran] + CCCCn1cc[n+](C)c1.[Cl-] the same measures were 3.61 ± 0.33, 3.76 ± 0.35, 3.84 ± 0.35, 3.96 ± 0.36 and 4.08 ± 0.37.

For the origin of these results see the NIST ThermoML archive (doi:10.1016/j.fluid.2019.01.028).
